Assay results reported in patent publication US10905757B2, “Cross-reactive T cell epitopes of HIV, SIV, and FIV for vaccines in humans and cats” (priority 2012, dated 2021).
Entries after “also recorded” stand apart in the source; their conditions may differ. Ends that are not written are not given here.

Assays:
[1] = test system: T cells from HIV− subjects; assay: CFSE-proliferation, CD8+ / CD4+ T cells from HIV− control subjects; assay type: cell-based, human
Description: Flow cytometry (FACS) for carboxyfluoresein diacetate succinimide ester (CFSE)-proliferation and intracellular cytotoxin staining (ICS). The CFSE-proliferation analysis was performed on PBMC according to the manufacturer's protocol (Invitrogen, Carlsbad, Calif.) and processed as previously described (Lichterfeld et al. (2004)). Modifications consisted of using 2.0-5.0×10^5 CFSE-labeled cells stimulated for 5 days (37° C., 5% CO^2) with 30 μg/well of total peptides in a pool (15 μg/well for individual peptide, Table 10) or 5 μg/mL PHA in AIM V medium containing 25 μg/mL of gentamycin and 10% heat-inactivated human serum. Subsequently these cells were harvested and labeled with the LIVE/DEAD fixable yellow dye (Invitrogen) and then treated 5 min with anti-CD16/CD32 antibody (Biolegend, San Diego, Calif.) for blocking non-specific binding before phenotype-specific antibodies. The following antibodies were used for the CFSE-proliferation analysis: anti-CD4 APC, anti-CD3 APC-H7, and anti-CD8 Pacific Blue (BD Biosciences, San Jose, Calif.).
(§1) In both analyses, 1.0-2.0×10^4 cells were fixed in phosphate-buffered saline (PBS) containing 2% paraformaldehyde and analyzed on BD LSRII using […] Software (BD Biosciences), with a positive threshold of 3% CFSE^low for CFSE-proliferation and 1% T cells expressing cytotoxin for ICS. The final value for each subject was derived after subtraction of the subject's medium control and the average value of peptide-stimulated cells from uninfected control subjects.
(§2) Flow cytometry (FACS) for measuring CFSE-proliferation and intracellular cytokine staining (ICS). Carboxyfluorescein diacetate succinimide ester (CFSE)-proliferation analysis was performed according to the manufacturer's protocol (Invitrogen) and processed as previously described (Lichterfeld et al. 2004) using the following modification: 2.5-5.0×10^5 CFSE-labeled PBMC stimulated for 4-5 days (37° C., 5% CO2) with 15-30 μg of peptides in culture media (AIM V medium, 25 μg/mL gentamycin, and 10% heat-inactivated fetal bovine serum). The ICS analysis was performed as previously described (Horton et al. 2007; Pattacini et al. 2012).
(§3) The antibodies used for the proliferation analysis consisted of anti-CD4 allophycocyanin (APC) anti-CD3 APC-H7, and anti-CD8 Pacific Blue, and those for ICS were anti-CD3 APC-H7, anti-CD4 BD Horizon V450, anti-CD8 FITC, anti-granzyme B (GrzB) Alexa 700, anti-granzyme A (GrzA) PE (BD Biosciences, Cat #555349, 560176, 558207, 560345, 555366, 560213, 558904), and anti-perforin PerCP (Abcam, Cat #ab86319). Both analyses were performed with BD LSRII and […]™ Software (BD Biosciences), using a positive threshold of >1% CFSE^low for CFSE-proliferation except for ICS studies with threshold of >0.1% T cells expressing cytotoxin. The final value for each subject was derived after subtracting the result of each HIV^+ subject with the media control followed by subtraction with the average response of the media-control subtracted HIV^− subjects.

[2] = test system: CD8+ T cells from HIV+ subjects; assay: Intracellular cytotoxin staining (ICS: perforin, GrzA, GrzB, CD107a), CD8+ T cells from HIV+ subjects; assay type: cell-based, human; set-up: key to CD8^+ T-cell cytotoxins (8C): positive (+); negative (−) response; inhibitory (↓); not done (n); details: for HIV+ subjects whose CD8+ T cells responded with one or more cytotoxins: five HIV+ subjects, individual 13-15mer peptides; for CD8^+ T-cell cytotoxins (8C): HIV^+ subjects compared to HIV^− control group
Description: (§4) Briefly, 1×10^6PBMCs (freshly isolated) are stimulated with 20 μg of peptides for 6 hours in a total volume of 200 μL in a 96-well plate in presence of Golgi transport inhibitor (37° C., 5% CO2). The cells are processed as previously described (Horton et al. (2007)). Cells were stained with the LIVE/DEAD® fixable yellow dye (Invitrogen, Eugene, Oreg.). The monoclonal antibodies fluorochome-conjugated to human cytokines used are: APC-H7 to CD3 (clone SK7); BD Horizon V450 to CD4 (clone RPA-T4); Qdot to CD8 (clone 3B5); PE-cy7 to IFN-γ (clone 4S.B3); APC to IL-2 (clone MQ1-17H12) PerCP to perforin (clone B-D48); Alexa F1.700 to granzyme-B (clone GB11) and PE to granzyme-A (clone CB9). The flow cytometry data is collected using BD LSRII and analyzed with the FACS DIVA software.
(§5) The ICS analysis (Horton et al. (2007)) involved stimulating 0.5-1.0×10^6 freshly isolated PBMC for 6 h with the same peptide stimulant and culture conditions as the proliferation analysis in the presence of 1 μg/mL of Golgi transport inhibitor and monensin followed by labeling with LIVE/DEAD fixable yellow dye and then treatment with anti-CD16/CD32 antibody and T-cell phenotypic antibodies. The cells were subsequently fixed and permeabilized with Cytofix/Cytoperm solution (BD Biosciences) before reaction with anti-cytotoxin antibodies. The antibodies consisted of anti-CD3 APC-H7, anti-CD4 BD Horizon V450, and anti-CD8 FITC followed by anti-GrzB Alexa 700 and anti-GrzA PE (all from BD Biosciences), and anti-perforin PerCP (Abcam, Boston, Mass.).
as §1, §2, §3

[3] = test system: CD4+ T cells from HIV+ subjects; assay: Intracellular cytotoxin staining (ICS), CD4+ T cells from HIV+ subjects; assay type: cell-based, human; set-up: key to CD4^+ T-cell cytotoxins (4C): positive (+); negative (−) response; inhibitory (↓); not done (n); details: for cytotoxin expression in CD4+ T cells (in words): ST/ART− subjects; for CD4^+ T-cell cytotoxins (4C): HIV^+ subjects compared to HIV^− control group
Description: as §4, §5, §1, §2, §3

[4] = test system: CD4+ or CD8+ T cells from HIV+ subjects; assay: Intracellular cytotoxin staining (ICS), CD4+ or CD8+ T cells from HIV+ responders; assay type: cell-based, human; details: for Cytotoxins: responders to Fp9 or Fp14 peptide pools; for cytotoxin and CD107a expression in CD4+ and CD8+ T cells (in words): p24 peptides
Description: Briefly, 1×10^6PBMCs (freshly isolated) are stimulated with 20 μg of peptides for 6 hours in a total volume of 200 μL in a 96-well plate in presence of Golgi transport inhibitor (37° C., 5% CO2). […] Cells were stained with the LIVE/DEAD® fixable yellow dye (Invitrogen, Eugene, Oreg.). […] The flow cytometry data is collected using BD LSRII and analyzed with the FACS DIVA software.
The cells were subsequently fixed and permeabilized with Cytofix/Cytoperm solution (BD Biosciences) before reaction with anti-cytotoxin antibodies. The antibodies consisted of anti-CD3 APC-H7, anti-CD4 BD Horizon V450, and anti-CD8 FITC followed by anti-GrzB Alexa 700 and anti-GrzA PE (all from BD Biosciences), and anti-perforin PerCP (Abcam, Boston, Mass.).
as §1
Flow cytometry (FACS) for measuring CFSE-proliferation and intracellular cytokine staining (ICS).
Both analyses were performed with BD LSRII and […]™ Software (BD Biosciences), using a positive threshold of >1% CFSE^low for CFSE-proliferation except for ICS studies with threshold of >0.1% T cells expressing cytotoxin.

[5] = test system: FIV infection of naïve cat PBMC; assay: In vitro FIV enhancing/inhibitory (E/I) assay in PBMC from naïve SPF cats (RT titer); assay type: cell-based; details: for effect on in vitro FIV infection: PBMC from naïve cats
Description: FIG. 35. FIV-enhancing versus inhibitory epitopes on peptides and MAPs used in pilot MAP Study. […] Abbreviation: MAP1 plus MAP2 mix (MAP1+2).
FIG. 36A and 36B. FIV/HIV-1 enhancing versus inhibitory epitopes. […] Four epitope peptides were tested in an in vivo efficacy study with prototype vaccine prime and MAP boosts against pathogenic FIV challenge (see MAP section).
To test the possibility that Fp4-3 peptide may be enhancing FIV infection, we performed an in vitro FIV enhancing/inhibitory analysis with all MAP peptides and immunogens. […]. Since MAP2 consisted of peptides FRT3-3 and FRT3-4 with a natural overlap (FIG. 34), such overlap may have blocked the enhancing activity of peptide FRT3-3 while allowing the inhibitory activity of peptide FRT3-4. […] Moreover, none of the MAP vaccinated cats had early detection or enhancement in viral load compared to the control cats. Perhaps, the strong immunity generated by the MAP2 has blocked the enhancing activity of the MAP1 when boosted together (Group 1, Table 3). To test this possibility, in vitro study is currently undergoing to evaluate whether MAP2 can block FIV enhancing activity of MAP1. Furthermore, more cats will be vaccinated with MAP 1b and MAP2 to determine the levels of cytotoxins generated to peptides Fp14-1, FRT3-3 and FRT3-4. Since these peptides have induced CTL-associated cytotoxin expression in T cells from HIV^+ subjects (FIGS. 31A-31B; FIG. 5 in (Sanou et al. 2013)), these EC peptides may also mediate their in vivo effects by inducing anti-FIV specific CTL activity.
However, only peptide Fp4-3 correlated with the in vitro enhancement induced by MAP1. Since the in vitro E/I assay uses PBMC from naïve specific pathogen free (SPF) cats, it is unlikely that the in vitro stimulation of anti-FIV CTLs occurred in the culture and eliminated the infected cells. More likely, these enhancing or inhibitory peptides induced cytokines (enhancement: IFNγ, TNFα, GM-CSF; inhibition: IFNα, IL10), chemokines (inhibition: MIP1α, MIP1β, SDF-1, RANTES), or cellular restriction factors (inhibition: Trim5α, APOBEC3g) that either enhanced or inhibited FIV/HIV-1 infection. […] IFNγ is produced during inflammatory responses to HIV-1 infection (Ipp and Zemlin 2013). Thus, high levels of antiviral cellular immune responses are needed while minimizing both non-specific and viral-specific activation of CD4^+ T cells which can enhance viral replication (Lane 2010). Removal of the enhancing epitopes on FIV and HIV-1 immunogens will be critical to produce an effective HIV-1 vaccine. To accomplish this goal, we will design a vaccine based on antiviral epitopes directed at inducing viral-specific CD4^+ CTLs, CD8^+ CTLs and polyfunctional T cells, and identifying viral enhancing epitopes to remove from vaccine candidates.

Substance | T-cell proliferation in HIV− subjects (in words) [1] | cytotoxin expression / CTL-associated activity in CD8+ T cells (in words) [2] | cytotoxin expression in CD4+ T cells (in words) [3] | Cytotoxins [4] | further results
ARMQCRAWY [Fp9-3d] | not | more cytotoxins | very little cytotoxin expression | Moderate Cytotoxins (only CD8) | –
DQEQNTAEVKLYLK [MAP1b, palmitated multiple antigenic peptide with FIV p24-peptide Fp14-1 alone] | – | – | – | – | effect on in vitro FIV infection [5]: no significant in vitro effect
FAPARMQCRAWYLEA [Fp9-3] | proliferated | more cytotoxins; also recorded: highest frequency of responders | very little cytotoxin expression | High Cytotoxins (The cytotoxin result is considered high when four or five subjects express one or more cytotoxins in the CD8^+ T cells) | HIV+ subjects whose CD8+ T cells responded with one or more cytotoxins [2]: up to four
KKKSGKWRLLIDFRVLNKL [MAP2] | – | – | – | – | effect on in vitro FIV infection [5]: significantly inhibited; also recorded: inhibition
RAEQASQEVKNWMTE [Hp15-1] | not | robust cytotoxin levels and responder frequencies | – | High Cytotoxins (The cytotoxin result is considered high when four or five subjects express one or more cytotoxins in the CD8^+ T cells) | CD8^+ T-cell cytotoxins (8C) [2]: +; HIV+ subjects whose CD8+ T cells responded with one or more cytotoxins [2]: five; CD4^+ T-cell cytotoxins (4C) [3]: +
RMQCRAWYL [Fp9-3c] | not | – | very little cytotoxin expression | Extremely Low Cytotoxins | –
VKNWMTETL [Hp15-2/3a] | did not stimulate | – | – | – | cytotoxin and CD107a expression in CD4+ and CD8+ T cells (in words) [4]: high cytotoxin and CD107a expression; also recorded: induced expression in both
VKNWMTETLLVQNAN [Hp15-3] | inducers | – | – | – | CD8^+ T-cell cytotoxins (8C) [2]: +; CD4^+ T-cell cytotoxins (4C) [3]: +; cytotoxin and CD107a expression in CD4+ and CD8+ T cells (in words) [4]: high levels and frequency of cytotoxin responses
concanavalin A [ConA, reference compound] | – | – | – | – | average RT titer ([5]; FIV-enhancing mitogen control, 1:10000 dilution): 54,634 cpm/mL
